According to US10731187B2, “Recombinant strain producing O-aminobenzoate and fermentative production of aniline from renewable resources via 2-aminobenzoic acid” (Covestro Deutschland AG, priority 2014, dated 2020):

Key:
[1] = system: B. subtilis; test: Shake flask growth (OD600) with supplementation of toxic substances; type: cell-based, Bacillus subtilis subsp. 168; conditions: 3 g/L oAB, pH 7 (MOPS), 100-mL shake flask, 25 h
Description: (§1) Several strains commonly used industrial biotechnology were investigated regarding their natural tolerance towards oAB and to organic solvents in question for later product extraction (e.g. 1-dodecanol or octanol). Furthermore, the influence of the used pH value was investigated. It was known from previous experiments that at least for E. coli the toxicity of aromatic compounds depends strongly on the pH value, probably because protonated acids can much more efficiently penetrate the cell membrane and accordingly their toxicity rises severely. The extraction of oAB in an organic phase is supposed to work best at low pH values, close to the isoelectric point of oAB. The most relevant host strains considered were: Escherichia coli K12, Corynebacterium glutamicum DSM 20300 (=ATCC 13032), Pseudomonas putida KT2440, Bacillus subtilis subsp. 168, Saccharomyces cerevisiae DSM 70449, and Pichia pastoris X33 (DSM 70382).
(§2) To investigate the chosen strains towards the mentioned characteristics shake flasks and small scale fermentation experiments were performed and the organisms were supplemented with the toxic substances (aminobenzoates, solvents) at differed concentrations, different pH values, and the behaviour of the strains was studied. […]

[2] = system: E. coli; test: as above; type: cell-based, Escherichia coli K12; conditions: already low concentrations
Description: as §1, §2

[3] = Solubility of oAB in 1-dodecanol (solid liquid equilibrium); type: physicochemical
Experimental: The solubility of oAB in dodecanol was tested with increasing temperature.

[4] = system: Corynebacterium glutamicum; test: Small-scale fermentation (1 L fermenters, pH 7, glucose fed) with supplementation; type: cell-based; conditions: pH 7, fermenter
Description: The results obtained in the shake flask experiments with C. glutamicum were reproduced in small-scale fermenters (FIG. 21). […]. The glucose-fed allowed the strain to grow to higher cell densities.
. This confirmed the results obtained in shake flasks (see FIG. 22). […] It was concluded that 1-dodecanol is a suitable oAB extraction solvent.
In a further experiment the concentration of oAB was increased to investigate the effect on the C. glutamicum strain. The four fermenters were hereto supplemented with 0 g/L, 15 g/L, 35 g/L and 80 g/L of oAB. […] The rest of the cultivation conditions was kept as described above. […] Cultures supplemented with 15 g/L oAB have shown an extensive lag-phase over 34-48 h before growth was recovered and cells entered the exponential phase (see FIG. 24). An oAB degradation during fermentation was again excluded by HPLC measurements of culture supernatants (data not shown).

[5] = system: Corynebacterium glutamicum; test: Shake flask growth (OD600) with supplementation of toxic substances; type: cell-based, Corynebacterium glutamicum DSM 20300 (=ATCC 13032)
Description: as §1
To investigate the chosen strains towards the mentioned characteristics shake flasks and small scale fermentation experiments were performed and the organisms were supplemented with the toxic substances (aminobenzoates, solvents) at differed concentrations, different pH values, and the behaviour of the strains was studied.
The organisms (commercially obtained from ordered from the DSMZ, German collection of Microorganisms and cell cultures, Braunschweig) were firstly cultivated in shake flasks and in each of them in suiting, published standard minimal medium in order to characterize their growth under standard cultivation conditions (C. glutamicum: Preculture: BHI medium (37 g/L; Brain-Heart-Infusion; Becton Dickenson and Company, Heidelberg); Main culture pH 7: CGXII-MOPS medium (42 g/L MOPS buffer, 20 g/L (NH4)2SO4, 5 g/L urea (Fisher Scientific, Schwerte), 1 g/L KH2PO4, 1 g/L K2HPO4, 0.25 g/L MgSO4.7H2O (Merck, Darmstadt), 0.01 g/L CaCl2, and 10 g/L glucose (autoclaved separately). The pH was adjusted to 7 with 5 mol/L sodium hydroxide solution. […]

[6] = Solubility of AA in aniline; type: physicochemical
Description: Aniline is a much better solvent for AA than dodecanol and, being also the product of the decarboxylation, its use presented great advantages compared to 1-dodecanol.

With `Nc1ccccc1C(=O)O` [oAB, 2-aminobenzoic acid] the “growth (OD600)” value [1] was “strongly decreased”, the toxicity of o-aminobenzoate [2] was “toxic” and the “solubility in 1-dodecanol” value ([3]; 3 wt %, room temperature) was “perfectly soluble”. The “solubility of oAB in 1-dodecanol (concentration)” value (shortened to “solubility of oAB in 1-dodecanol”) ([3]; 40 ° C.) was 4.88 wt %, the “solubility of oAB in 1-dodecanol” value ([3]; 68 ° C.) was 13.10 wt % and the “solubility of oAB in 1-dodecanol” value ([3]; 93 ° C.) was 23.05 wt %. For the same compound, the “solubility of oAB in 1-dodecanol” value ([3]; 111 ° C.) was 35.34 wt %, the “solubility of oAB in 1-dodecanol” value ([3]; 119 ° C.) was 44.22 wt % and the “solubility of oAB in 1-dodecanol” value ([3]; 123 ° C.) was 50.93 wt %. For the same compound, the “growth (OD600)” value ([4]; 7 g/L) was “prolonged lag-phase but finally same cell densities were reached”, the “lag-phase before growth was recovered” value ([4]; 15 g/L oAB (ammonium salt)) was 34 to 48 h and the “growth (OD600)” value ([4]; 35 g/L oAB (ammonium salt)) was “growth inhibition”. For the same compound, the “growth (OD600)” value ([4]; 80 g/L oAB (ammonium salt), over 54 hours) was “dying (lysis) of the cells”, the “growth (OD600)” value ([5]; 3 g/L oAB, pH 7 (MOPS), 100-mL shake flask, 25 h) was “not inhibited” and the growth inhibition ([5]; 5 g/L, pH 5 and pH 7, shake flask) was “No growth inhibition”. For the same compound, the tolerance for o-aminobenzoate ([5]; Corynebacterium glutamicum ATCC13032) was “high tolerance”, the “AA that could be dissolved in aniline” value ([6]; 50° C.) was “up to 40%” and the “AA that could be dissolved in aniline” value ([6]; 90° C.) was “up to 50%”. For the same compound, the “AA that could be dissolved in aniline” value ([6]; room temperature (20° C.)) was “up to 30%”.
